Test results as given in article PMC3585822, “The ancestral activation promiscuity of ADP-glucose pyrophosphorylases from oxygenic photosynthetic organisms” (BMC Evolutionary Biology, 2013).
Read-outs that look alike come from different tables or passages of the source.

Columns and labels:
Test in all cases: ADP-[…]Glc synthesis from […]Glc1P, modified Hill fit
[1] = test system: T1, OtaS/OtaL; format: biochemical, Ostreococcus tauri; conditions: allosteric activator; 1 mM ATP, 1 mM Glc1P, 7 mM MgCl2, pH 8.0, 37 °C; non-catalytic OtaL with wild-type OtaS; read-out: A0.5
T1 construct: recombinant S2L2 heterotetramer co-expressed in E. coli AC70R1-504, purified

[2] = test system: T1, OtaS/OtaL; format: biochemical, Ostreococcus tauri; conditions: allosteric activator; 1 mM ATP, 1 mM Glc1P, 7 mM MgCl2, pH 8.0, 37 °C; non-catalytic OtaS with wild-type OtaL; read-out: A0.5
[3] = test system: T2, OtaS; format: biochemical, Ostreococcus tauri; conditions: allosteric activator; 1 mM ATP, 1 mM Glc1P, 7 mM MgCl2, pH 8.0, 37 °C; read-out: A0.5
T2 construct: recombinant small subunit homotetramer from E. coli AC70R1-504, purified; plasmid pMAB5 or pMAB6

[4] = test system: T1, OtaS/OtaL; format: biochemical, Ostreococcus tauri; conditions: allosteric activator; 1 mM ATP, 1 mM Glc1P, 7 mM MgCl2, pH 8.0, 37 °C; read-out: A0.5
[5] = biological target: T3, ADP-Glc PPase from Anabaena (Nostoc sp. PCC 7120 = FACHB-418, UniProt P30521); format: biochemical; conditions: read-out: A0.5
T3 construct: gene glgC; recombinant homotetramer from E. coli AC70R1-504, purified
T3 sequence (P30521 1-429): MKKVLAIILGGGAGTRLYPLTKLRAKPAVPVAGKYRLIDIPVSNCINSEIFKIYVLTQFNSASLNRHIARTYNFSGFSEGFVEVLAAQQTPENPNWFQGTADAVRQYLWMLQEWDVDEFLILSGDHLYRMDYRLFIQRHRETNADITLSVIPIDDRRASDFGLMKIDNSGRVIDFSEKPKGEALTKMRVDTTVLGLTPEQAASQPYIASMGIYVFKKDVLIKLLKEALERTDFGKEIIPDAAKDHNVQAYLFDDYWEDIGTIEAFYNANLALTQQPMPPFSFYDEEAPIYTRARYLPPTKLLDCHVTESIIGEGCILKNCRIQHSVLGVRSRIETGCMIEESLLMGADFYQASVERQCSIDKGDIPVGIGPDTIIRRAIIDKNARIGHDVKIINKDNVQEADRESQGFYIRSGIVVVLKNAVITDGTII

[6] = allosteric activator, 1 mM ATP, 1 mM Glc1P, 7 mM MgCl2, pH 8.0, 37 °C

| EC50 [1] [µM] | EC50 [2] [µM] | EC50 [3] [µM] | EC50 [4] [µM] | EC50 [5] [µM] | EC50 [5, 6] [µM] | SMILES |
| --- | --- | --- | --- | --- | --- | --- |
| 67 | 3 | 1200 | 540 | 75 |  | O=C(O)[C@H](O)COP(=O)(O)O [3-PGA] |
| 1500 | 8200 | 1100 | 1100 |  | 300 | O=P(O)(O)OC[C@H]1OC(O)(COP(=O)(O)O)[C@@H](O)[C@@H]1O (stereo partly shown) [FBP] |
|  |  | 1900 | 15000 |  | 1600 | O=P(O)(O)OC[C@H]1OC(O)(CO)[C@@H](O)[C@@H]1O (stereo partly shown) [Fru6P] |
|  |  | 10000 | 75000 |  | 400 | O=P(O)(O)OC[C@H]1OC(O)[C@H](O)[C@@H](O)[C@@H]1O (stereo partly shown) [Glc6P] |
